Tests used:
human SGLT1 = molecular target: T1, human SGLT1 (Homo sapiens, UniProt P13866); assay: Sodium-dependent 14C-AMG uptake in CHO-K1 cells expressing human SGLT1; assay type: cell-based
T1 sequence (P13866 1-664): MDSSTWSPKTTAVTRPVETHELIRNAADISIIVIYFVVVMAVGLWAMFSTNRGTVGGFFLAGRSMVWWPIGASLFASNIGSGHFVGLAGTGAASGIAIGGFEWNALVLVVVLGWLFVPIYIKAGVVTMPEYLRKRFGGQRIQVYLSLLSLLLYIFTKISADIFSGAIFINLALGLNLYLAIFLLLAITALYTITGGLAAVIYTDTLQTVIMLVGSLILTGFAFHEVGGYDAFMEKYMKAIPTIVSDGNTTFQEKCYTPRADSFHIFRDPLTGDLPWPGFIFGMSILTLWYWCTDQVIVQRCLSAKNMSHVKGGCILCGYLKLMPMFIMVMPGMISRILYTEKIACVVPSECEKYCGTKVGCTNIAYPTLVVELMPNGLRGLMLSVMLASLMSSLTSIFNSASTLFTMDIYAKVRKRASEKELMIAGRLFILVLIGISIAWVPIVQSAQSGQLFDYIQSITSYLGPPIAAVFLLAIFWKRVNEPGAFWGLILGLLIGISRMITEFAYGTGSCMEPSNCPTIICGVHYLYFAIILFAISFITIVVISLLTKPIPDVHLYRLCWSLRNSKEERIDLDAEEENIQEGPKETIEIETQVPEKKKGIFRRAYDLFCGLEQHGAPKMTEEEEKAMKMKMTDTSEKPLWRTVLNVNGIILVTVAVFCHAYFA
Description: The cDNA encoding human SGLT1 (slc5a1, NM_000343), human SGLT2 (slc5a2, NM_003041) and mouse SGLT1 (slc5a1, NM_019810.4) are purchased from Openbiosystems, Invitrogen and Openbiosystems, respectively. The cDNA is cloned into pcDNA3.1+ for mammalian expression and is stably transfected into Chinese hamster ovary (CHO)-K1 cells using standard mammalian transfection procedures. An SGLT-expressing sub-clone of each over-expressing cell line is selected based on resistance to neomycin (Geneticin, Invitrogen) and activity in the ^14C-α-methyl-D-glucopyranoside (^14C-AMG) uptake assay (see below). Stable SGLT-expressing cells are maintained using standard cell culture techniques.
The SGLT activity is measured as sodium-dependent ^14C-AMG uptake in the above cell lines described as follows. One hundred μL of culture medium containing 30,000 cells are seeded to each well of a 96-well BioCoat poly-D-lysine plate (Becton Dickson) and cultured at 37° C. overnight. The culture medium is aspirated and cells are washed twice with 200 μL of Reaction Buffer (140 mM NaCl, 2 mM KCl, 1 mM CaCl2, MgCl2, and 14 mM N-2-hydroethylpiperrazine-N′-2-ethanesulfonic acid (Hepes), pH 7.5). The excess buffer is tapped out onto paper towels. Thirty-five μL of Reaction Buffer are added to each well. […] After mixing, the scintillation signal in the plate is counted in a MicroBeta (PerkinElmer). […]

[1] = system: normal glycemic C57B1/6 mouse; assay: Glucose lowering effects in oral glucose tolerance test (OGTT); assay type: in vivo; details: for Glucose, 20 Minute: 20 min after dextrose; for Glucose, 20 Minute / Glucose, 40 Minute / Glucose, 60 Minute / Glucose, 120 Minute / Baseline Adjusted AUC (glucose) / Glucose, 0 Minute: mean ± SE; for Glucose, 40 Minute: 40 min after dextrose; for Glucose, 60 Minute: 60 min after dextrose; for Glucose, 120 Minute: 120 min after dextrose; for Baseline Adjusted AUC (glucose): OGTT; for Glucose, 0 Minute: baseline 3 h after compound, before dextrose 3 g/kg
Description: The test compound is formulated by adding a vehicle of 1% hydroxyethylcellulose, 0.25% Tween® 80 w/antifoam 0.05% to preweighed test compound to make a 1 mg/ml solution. The mixture is probe sonicated for approximately 30 seconds. The resulting solution is used as a stock solution from which the lower concentration dose solutions are prepared by dilution with the vehicle.
Single housed C57B1/6 mice are fasted overnight by removing access to food the late afternoon before test day. The following morning, the mice are weighed and a single fasting blood sample is taken by tail snip to measure glucose by glucometer (Roche AccuChek). Study groups (n=5) are determined based on fasted blood glucose and comprise preferably animals in the range of 80-100 mg/dl glucose.
After grouping, the first mouse is orally gavaged with 10 ml/kg test compound preparation and a timer started. Each subsequent animal is dosed a minute and a half apart. Three hours after the first compound treatment is started, a baseline blood sample is taken for measuring glucose (from the first animal, via tail snip). The animal is then immediately given an oral dose of 50% dextrose (Hospira) at 3 g/kg. Blood samples are taken for glucose, exactly a minute and half apart, by tail vein so that blood is collected in each animal at 20, 40, 60 and 120 minutes after the dextrose dose.

SMILES: Cc1cc(/C=C/CCN2CCCC3(CCNCC3)C2)ccc1Cc1c(O[C@@H]2O[C@H](CO)[C@@H](O)[C@H](O)[C@H]2O)n[nH]c1C(C)C [Example 1 (free base), 4-{4-[(1E)-4-(2,9-diazaspiro[5.5]undec-2-yl)but-1-en-1-yl]-2-methylbenzyl}-5-(propan-2-yl)-1H-pyrazol-3-yl beta-D-glucopyranoside]
- IC50 (human SGLT1; 14C-AMG uptake, CHO-K1 cells, n = 10): 26 ± 20 nM
- Potency at SGLT1 relative to human SGLT2 (human SGLT1; in vitro, from Table 2): more potent at human and mouse SGLT1 than at human SGLT2
- Glucose, 20 Minute ([1]; 0.3 mg/kg oral): 185 ± 13.7 mg/dL
- Glucose, 40 Minute ([1]; 0.3 mg/kg oral): 197 ± 14.7 mg/dL
- Glucose, 60 Minute ([1]; 0.3 mg/kg oral): 164 ± 6.3 mg/dL
- Glucose, 120 Minute ([1]; 0.3 mg/kg oral): 121 ± 11.8 mg/dL
- Baseline Adjusted AUC (glucose) ([1]; 0.3 mg/kg oral, in mg·min/dL): 5400 ± 519^
- Glucose, 0 Minute ([1]; 0.3 mg/kg oral): 78 ± 4.2 mg/dL
- Glucose, 20 Minute ([1]; 1 mg/kg oral): 147 ± 8.3 mg/dL
- Glucose, 40 Minute ([1]; 1 mg/kg oral): 171 ± 11.1 mg/dL
- Glucose, 60 Minute ([1]; 1 mg/kg oral): 162 ± 5.8 mg/dL
- Glucose, 120 Minute ([1]; 1 mg/kg oral): 109 ± 7.3 mg/dL
- Baseline Adjusted AUC (glucose) ([1]; 1 mg/kg oral, in mg·min/dL): 4158 ± 374^
- Glucose, 0 Minute ([1]; 1 mg/kg oral): 76 ± 3.3 mg/dL
- Glucose, 20 Minute ([1]; 3 mg/kg oral): 133 ± 7.1 mg/dL
- Glucose, 40 Minute ([1]; 3 mg/kg oral): 150 ± 7.5 mg/dL
- Glucose, 60 Minute ([1]; 3 mg/kg oral): 155 ± 7.2 mg/dL
- Glucose, 120 Minute ([1]; 3 mg/kg oral): 115 ± 10 mg/dL
- Baseline Adjusted AUC (glucose) ([1]; 3 mg/kg oral): 3606 ± 421
- Glucose, 0 Minute ([1]; 3 mg/kg oral): 72 ± 2.6 mg/dL
- Glucose, 20 Minute ([1]; 10 mg/kg oral): 124 ± 1.2 mg/dL
- Glucose, 40 Minute ([1]; 10 mg/kg oral): 137 ± 5.4 mg/dL
- Glucose, 60 Minute ([1]; 10 mg/kg oral): 138 ± 6.1 mg/dL
- Glucose, 120 Minute ([1]; 10 mg/kg oral): 114 ± 4.3 mg/dL
- Baseline Adjusted AUC (glucose) ([1]; 10 mg/kg oral): 2693 ± 309
- Glucose, 0 Minute ([1]; 10 mg/kg oral): 78 ± 5.4 mg/dL
- Baseline adjusted glucose AUC during an OGTT ([1]; 0.3-10 mg/kg oral, in words): dose dependent decrease in baseline adjusted glucose area under the curve (AUC)
- Glucose excursion following an oral bolus of 50% dextrose ([1]; 0.3-10 mg/kg oral, in words): dose dependent decrease in the glucose excursion
